Values after ≈ are worked out from the molar mass of the structure shown. Like-named read-outs stand apart in the source and are kept apart here.
What was measured:
physchem [1] = experiment: physchem
[2] = 6 h incubation in mouse plasma
[3] = system: primary peritoneal mouse macrophages (PMM); experiment: cells; conditions: Macrophage
in vitro [4] = conditions: plasma
in vitro [5] = conditions: mouse, microsomes; for microsomal CLint at 0.5 μM: mouse liver microsomes
[6] = system: Leishmania infantum MHOM/MA(BE)/67/ITMAP263 intracellular amastigotes; experiment: microbe, parasite or virus in culture; conditions: Macrophage, in Mus musculus
physchem [7] = conditions: HPLC, Ascentis Express RP Amide column
in vitro [8] = conditions: human, microsomes; for microsomal CLint at 0.5 μM: human liver microsomes
[9] = versus the preceding analogue
in vitro [10] = conditions: human
in vitro [11] = conditions: human, HepG2 cells
[12] = system: L. infantum MHOM/MA/67/ITMAP263 axenic Promastigotes; experiment: microbe, parasite or virus in culture; conditions: Leishmania infantum, read-out: L. infantum MHOM/MA/67/ITMAP263 axenic Promastigotes IC50
in vitro [13] = conditions: PAMPA
in vitro [14] = conditions: human, HFF-1 cells
[15] = system: Trypanosoma cruzi, Tulahuen CL2, beta-galactosidase strain; experiment: microbe, parasite or virus in culture
in vitro [16] = conditions: human, HepG2 cells; remark: listed apart in the source
in vitro [17] = conditions: human, THP-1 cells differentiated with PMA
in vitro [18] = conditions: PAMPA; remark: listed apart in the source
[19] = system: Leishmania infantum (MHOM/MA/67/ITMAP-263) intracellular amastigotes in THP-1; experiment: microbe, parasite or virus in culture
in vitro [20] = conditions: human, HFF-1 cells; remark: listed apart in the source
[21] = system: L. donovani MHOM/SD/62/1SCL2D intracellular amastigotes; experiment: microbe, parasite or virus in culture; conditions: Leishmania donovani, read-out: L. donovani MHOM/SD/62/1SCL2D intracellular amastigotes IC50
in vitro [22] = conditions: human, HepG2 cells; remark: listed apart in the source
Vero = experiment: cells; conditions: Chlorocebus sabaeus, read-out: Vero IC50
[23] = system: axenic L. don. amastigotes (MHOM/SD/62/1S-CL2, LdBOB); experiment: microbe, parasite or virus in culture; conditions: Leishmania donovani, read-out: L. donovani MHOM/SD/62/1SCL2D axenic-cidal amastigotes IC50
in vitro [24] = conditions: human, HepG2 cells; remark: listed apart in the source
in vitro [25] = conditions: PAMPA; remark: listed apart in the source
in vitro [26] = conditions: human, HFF-1 cells; remark: listed apart in the source
[27] = read-out: L. Inf. pIC50, from L. infantum intracellular amastigote IC50 (converted)
[28] = read-out: L. infantum MHOM/MA(BE)/67/ITMAP263 intracellular amastigotes IC50, intracellular amastigotes
[29] = MRC5, read-out: T. cruzi Tulahuen C4 (LacZ) IC50
[30] = PBS, pH 7.4, aqueous buffer, kinetic from dmso stock
[31] = read-out: L. infantum MHOM/MA(BE)/67/ITMAP263 intracellular amastigotes IC50 (uM), intracellular amastigotes
[32] = MRC5, read-out: T. cruzi Tulahuen C4 (LacZ) IC50 (uM)
[33] = read-out: L. Inf. pIC50 (converted)
[34] = read-out: L. infantum MHOM/MA(BE)/67/ITMAP263 intracellular amastigotes IC50

| Compound | CC50 at 3 days (in vitro [10]) | CC50 (in vitro [11]) | IC50 ([3]; read-out: PMM IC50) | microsomal CLint at 0.5 μM (in vitro [5]; pH 7.4, MLM CLint) | IC50 [12] | IC50 [6, 27] | IC50 [6, 28] | Papp (in vitro [13]) | CC50 (in vitro [14]) | chromatographic logD (physchem [7]; pH 7.4, eLogD, experimental) | IC50 [15, 29] | microsomal CLint at 0.5 μM (in vitro [8]; pH 7.4, HLM CLint) | solubility kinetic (physchem [1]; [30]) | CC50 at 120 h (in vitro [17]) | IC50 [21] | CC50 (in vitro [22]) | further results |
| --- | --- | --- | --- | --- | --- | --- | --- | --- | --- | --- | --- | --- | --- | --- | --- | --- | --- |
| COc1ccc(C(=O)N2CCOCC2)cc1S(=O)(=O)N(Cc1ccc(F)cc1)Cc1ccc(C(F)(F)F)nc1 [Compound 46] | – | – | – | – | – | – | – | – | – | – | – | – | – | – | – | – | solubility kinetic (physchem [1]; aqueous medium, pH 2.0, pH 2): 3.8 µg/mL (≈ 6.7 µM); solubility kinetic (physchem [1]; aqueous medium, pH 7.4, pH 7.4): 3.2 µg/mL (≈ 5.64 µM); Mouse plasma stability (6 h) [2]: 22 % remaining; IC50 ([3]; read-out: PMM pIC50 (converted)): > 64.6 µM; fraction unbound (in vitro [4]; Plasma protein binding (PPB)): 0.041; microsomal CLint at 0.5 h, 0.5 µM (in vitro [5]; pH 7.4, Microsome Clint,u Mouse, Table 2, intrinsic in vitro clearance, liver microsomes): 534 µL/min/mg; IC50 ([6]; read-out: L. inf. pIC50, intracellular amastigotes in PMM (converted), geometric mean of a minimum of two experiments ± standard error): 1.74 µM; chromatographic logD (physchem [7]; pH 7.4, elog D, HPLC measured log D, pH 7.4): 3.7; microsomal CLint at 0.5 h, 0.5 µM (in vitro [8]; pH 7.4, Microsome Clint,u Human, Table 2, intrinsic in vitro clearance, liver microsomes): 265 µL/min/mg; improvement in the in vitro mouse clearance [9]: 4 fold |
| COc1ccc(Cl)cc1S(=O)(=O)N(Cc1ccccc1)C(Cc1ccccc1)C(N)=O (centres unmarked) [DNDI0003370116] | 9.62 µM | 39 µM | 32 µM | 801 µL/min/mg | 30.4 µM | 4.68 µM | 4.73 µM | 5.17 ×10⁻⁶ cm/s | 37.5 µM | 4.2 | 5.3 µM | 752 µL/min/mg | – | – | – | – | – |
| COc1ccc(C(=O)N2CCOCC2)cc1S(=O)(=O)N(Cc1ccccc1)Cc1cnc(C(F)(F)F)nc1 [DNDI0003425509] | > 64 µM | – | – | – | – | 4.37 µM | – | – | – | 3.1 | – | – | 6.22 µg/mL (≈ 11.3 µM) | > 64 µM | – | – | CC50 (in vitro [16]): > 64 µM; KS PBS - pH 2 (ug/mL): 11.3 ug/mL; IC50 ([3]; read-out: PMM IC50 (uM)): > 64 µM; fraction unbound (in vitro [4]; PPB (%)): 0.117; microsomal CLint at 0.5 μM (in vitro [5]; pH 7.4, MLM CLint (uL/min/mg)): 78 µL/min/mg; IC50 [6, 31]: 4.35 µM; Papp (in vitro [18]): 15.2 ×10⁻⁶ cm/s; IC50 ([19]; THP-1, read-out: L. infantum MHOM/MA/67/ITMAP263 intracellular amastigotes THP-1 cells IC50 (uM)): > 64 µM; IC50 [15, 32]: 7.07 µM; CC50 (in vitro [20]): > 64 µM; microsomal CLint at 0.5 μM (in vitro [8]; pH 7.4, HLM CLint (uL/min/mg)): 76 µL/min/mg |
| COc1ccc(CN2CCCC2)cc1S(=O)(=O)N(Cc1ccc(F)cc1)Cc1ccc(F)cc1 [DNDI0003370114] | 6.87 µM | 3.25 µM | 8 µM | 144 µL/min/mg | 0.72 µM | 2.95 µM | 2.92 µM | 0.64 ×10⁻⁶ cm/s | 13.8 µM | 4.4 | 3.27 µM | 62 µL/min/mg | – | – | – | – | – |
| O=C1c2ccccc2S(=O)(=O)N(Cc2ccccc2)C1Cc1ccccc1 (centres unmarked) [DNDI0003370098] | 30.8 µM | > 64 µM | > 64 µM | 1060 µL/min/mg | > 64 µM | 11.7 µM | 11.7 µM | 4.11 ×10⁻⁶ cm/s | > 64 µM | 3.6 | 9.38 µM | 141 µL/min/mg | – | – | – | – | – |
| COc1ccc(C2c3cccn3CCN2S(=O)(=O)c2ccc3ccccc3c2)cc1 (centres unmarked) [DNDI0003355838] | – | – | – | – | – | – | – | – | – | – | – | – | – | > 50 µM | > 50 µM | > 50 µM | IC50 (Vero): > 50 µM |
| COc1ccc(OC)c(S(=O)(=O)N(Cc2ccc(F)cc2)c2ccc(F)cn2)c1 [DNDI0003370085] | > 64 µM | 16.4 µM | > 64 µM | 1990 µL/min/mg | 33 µM | 41.7 µM | 41.9 µM | 7.1 ×10⁻⁶ cm/s | 15 µM | 3.5 | 5.17 µM | 230 µL/min/mg | – | – | – | – | – |
| COc1ccc(CN(c2ccc3c(c2)OCO3)S(=O)(=O)c2ccc3nncn3c2)cc1 [DNDI0003321888] | – | – | – | – | – | – | – | – | – | – | – | – | – | > 50 µM | > 50 µM | > 50 µM | IC50 (Vero): > 50 µM |
| CCCCCOc1cc(C)c(Cl)cc1S(=O)(=O)NCc1cccs1 [DNDI0002572712] | 44.1 µM | – | 40.3 µM | 693 µL/min/mg | – | – | – | – | – | – | 12.2 µM | 693 µL/min/mg | 0.39 µg/mL (≈ 1.01 µM) | > 50 µM | 12 µM | 40 µM | KS PBS - pH 2: 0.39 ug/mL; IC50 [6, 33]: 0.851 µM; IC50 [6, 34]: 0.85 µM; IC50 [23]: 4.4 µM |
| COc1cc(S(=O)(=O)N(Cc2ccccc2)Cc2ccccc2)c(OC)cc1C [DNDI0002644002] | > 64 µM | – | > 64 µM | 1080 µL/min/mg | – | – | – | – | – | – | > 64 µM | 920 µL/min/mg | 0.41 µg/mL (≈ 0.996 µM) | > 50 µM | 12 µM | 39 µM | KS PBS - pH 2: 0.41 ug/mL; IC50 [6, 33]: 0.537 µM; IC50 [6, 34]: 0.54 µM; IC50 [23]: 1.5 µM |
| COc1ccc(C(=O)N2CCOCC2)cc1S(=O)(=O)N(Cc1ccc(F)cc1)Cc1ccc(C(F)(F)F)nc1 [DNDI0003389644] | > 64 µM | – | – | – | – | 1.74 µM | – | – | – | – | – | – | 3.32 µg/mL (≈ 5.85 µM) | – | – | – | CC50 (in vitro [16]): > 64 µM; KS PBS - pH 2 (ug/mL): 3.79 ug/mL; IC50 ([3]; read-out: PMM IC50 (uM)): > 64 µM; fraction unbound (in vitro [4]; PPB (%)): 0.0409; microsomal CLint at 0.5 μM (in vitro [5]; pH 7.4, MLM CLint (uL/min/mg)): 163 µL/min/mg; IC50 [6, 31]: 1.74 µM; Papp (in vitro [18]): 10 ×10⁻⁶ cm/s; IC50 [15, 32]: 3.39 µM; CC50 (in vitro [20]): 36.9 µM; microsomal CLint at 0.5 μM (in vitro [8]; pH 7.4, HLM CLint (uL/min/mg)): 190 µL/min/mg |
| CCCCCOc1cc(C)c(C)cc1S(=O)(=O)NC1CCCC1 [DNDI0002550647] | 37 µM | – | 45.2 µM | 416 µL/min/mg | – | – | – | – | – | – | 7.86 µM | 567 µL/min/mg | 0.56 µg/mL (≈ 1.65 µM) | > 50 µM | 13 µM | > 50 µM | KS PBS - pH 2: 0.74 ug/mL; IC50 [6, 33]: 1.05 µM; IC50 [6, 34]: 1.05 µM; IC50 [23]: 12 µM |
| O=S(=O)(c1ccc2nncn2c1)N(Cc1cccc(F)c1)c1ccc2c(c1)OCO2 [DNDI0003321886] | – | – | – | – | – | – | – | – | – | – | – | – | – | > 50 µM | > 50 µM | > 50 µM | IC50 (Vero): 35 µM |
| COc1ccc(S(=O)(=O)N2Cc3ccccc3CC2C(=O)NCc2ccccc2)cc1 (centres unmarked) [DNDI0003338988] | – | – | – | – | – | – | – | – | – | – | – | – | – | > 50 µM | > 50 µM | > 50 µM | IC50 (Vero): 29 µM |
| C[S+]([O-])c1c(Cl)ccc2c1S(=O)(=O)N(Cc1ccccc1)CCO2 (centres unmarked) [DNDI0003578383] | > 64 µM | – | > 64 µM | 423 µL/min/mg | – | – | 47.9 µM | – | – | 3 | 29.3 µM | 33 µL/min/mg | – | > 64 µM | – | – | CC50 (in vitro [24]): > 64 µM; Papp (in vitro [25]): 22 ×10⁻⁶ cm/s; IC50 ([6]; read-out: L. Inf. pIC50, L. infantum intracellular amastigotes (converted)): 47.9 µM; CC50 (in vitro [26]): > 64 µM; IC50 ([19]; THP-1, read-out: L. infantum MHOM/MA/67/ITMAP263 intracellular amastigotes THP-1 cells IC50): > 64 µM |
| COc1ccc(OC)c(S(=O)(=O)N(Cc2ncccn2)Cc2ncccn2)c1 [DNDI0003370115] | > 64 µM | > 64 µM | > 64 µM | 67 µL/min/mg | > 64 µM | > 64 µM | > 64 µM | 25.1 ×10⁻⁶ cm/s | > 64 µM | 1.3 | 61.4 µM | 17 µL/min/mg | – | – | – | – | – |
